Source: PubChem BioAssay AID2060882 (Molecular Pharmacology Branch, DTP, NCI, 2025)

Test system: 898857-211-R-J1-PDC complex spheroids, growth % test/control
Assay: Anticancer human tumor 898857-211-R-J1-PDC patient-derived melanoma cell line growth inhibition [RAS]
Settings: for IC50: curve of first compound; for viability, T/C: stronger effect = lower value
How it was run: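 Multi-cell-type spheroids: tumor cells plus HUVEC endothelial cells and mesenchymal stem cells. RAS-pathway inhibitors were combined with targeted agents, each dosed in half-log steps down from clinical Cmax, or from 10 microM when Cmax was unknown.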
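Also: spheroids exposed to compound for seven days before readout.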
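For viability, T/C in this document: 100% = DMSO vehicle control wells.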

How did the IC50 (second compound 0.0316 µM) turn out when `C=CC(=O)N1CCN(c2nc(OCC3CCCN3C)nc3c(F)c(-c4nc(N)cc(C)c4C(F)(F)F)c(Cl)cc23)C(C)C1` (centres undefined) + C#Cc1c(F)ccc2cc(O)cc(-c3ncc4c(N5CC6CCC(C5)N6)nc(OCC56CCCN5CC(F)C6)nc4c3F)c12 was run?
The IC50 was > 1000 nM.

And the IC50 (second compound 0.1 µM)?
The IC50 was > 1000 nM.

What about the IC50 (second compound 0.316 µM) of the same molecule?
The IC50 was > 1000 nM.

And the IC50 (second compound 1 µM)?
Its IC50 is > 1000 nM.

And the IC50 (second compound 3.16 µM)?
The IC50 was > 1000 nM.

What about the IC50 (second compound 10 µM) of the same molecule?
Its IC50 is < 3.16 nM.

What about the viability, T/C (second compound 0.0316 µM, first compound 0.00316 µM) of the same molecule?
The viability, T/C was 107%.

What about the viability, T/C (second compound 0.0316 µM, first compound 0.01 µM) of the same molecule?
Its viability, T/C is 92.9%.

And the viability, T/C (second compound 0.0316 µM, first compound 0.0316 µM)?
The viability, T/C was 103%.

What about the viability, T/C (second compound 0.0316 µM, first compound 0.1 µM) of the same molecule?
Its viability, T/C is 103%.

What about the viability, T/C (second compound 0.0316 µM, first compound 0.316 µM) of the same molecule?
Its viability, T/C is 117%.

And the viability, T/C (second compound 0.0316 µM, first compound 1 µM)?
The viability, T/C was 118%.

What about the viability, T/C (second compound 0.1 µM, first compound 0.00316 µM) of the same molecule?
The viability, T/C was 109%.

And the viability, T/C (second compound 0.1 µM, first compound 0.01 µM)?
Its viability, T/C is 107%.

What about the viability, T/C (second compound 0.1 µM, first compound 0.0316 µM) of the same molecule?
Its viability, T/C is 109%.

And the viability, T/C (second compound 0.1 µM, first compound 0.1 µM)?
Its viability, T/C is 105%.

What about the viability, T/C (second compound 0.1 µM, first compound 0.316 µM) of the same molecule?
The viability, T/C was 126%.

What about the viability, T/C (second compound 0.1 µM, first compound 1 µM) of the same molecule?
The viability, T/C was 117%.

And the viability, T/C (second compound 0.316 µM, first compound 0.00316 µM)?
The viability, T/C was 95.8%.

What about the viability, T/C (second compound 0.316 µM, first compound 0.01 µM) of the same molecule?
The viability, T/C was 91.4%.

And the viability, T/C (second compound 0.316 µM, first compound 0.0316 µM)?
The viability, T/C was 100%.

And the viability, T/C (second compound 0.316 µM, first compound 0.1 µM)?
Its viability, T/C is 96%.

And the viability, T/C (second compound 0.316 µM, first compound 0.316 µM)?
The viability, T/C was 114%.

What about the viability, T/C (second compound 0.316 µM, first compound 1 µM) of the same molecule?
Its viability, T/C is 129%.

And the viability, T/C (second compound 1 µM, first compound 0.00316 µM)?
The viability, T/C was 104%.

What about the viability, T/C (second compound 1 µM, first compound 0.01 µM) of the same molecule?
The viability, T/C was 102%.

And the viability, T/C (second compound 1 µM, first compound 0.0316 µM)?
Its viability, T/C is 101%.

And the viability, T/C (second compound 1 µM, first compound 0.1 µM)?
Its viability, T/C is 104%.

And the viability, T/C (second compound 1 µM, first compound 0.316 µM)?
The viability, T/C was 105%.

And the viability, T/C (second compound 1 µM, first compound 1 µM)?
The viability, T/C was 98.9%.

And the viability, T/C (second compound 3.16 µM, first compound 0.00316 µM)?
The viability, T/C was 99.4%.

And the viability, T/C (second compound 3.16 µM, first compound 0.01 µM)?
The viability, T/C was 93.5%.

And the viability, T/C (second compound 3.16 µM, first compound 0.0316 µM)?
The viability, T/C was 86.6%.

And the viability, T/C (second compound 3.16 µM, first compound 0.1 µM)?
Its viability, T/C is 106%.

What about the viability, T/C (second compound 3.16 µM, first compound 0.316 µM) of the same molecule?
The viability, T/C was 116%.

And the viability, T/C (second compound 3.16 µM, first compound 1 µM)?
Its viability, T/C is 87.3%.

And the viability, T/C (second compound 10 µM, first compound 0.00316 µM)?
The viability, T/C was 56.5%.

And the viability, T/C (second compound 10 µM, first compound 0.01 µM)?
The viability, T/C was 39.5%.

And the viability, T/C (second compound 10 µM, first compound 0.0316 µM)?
Its viability, T/C is 41.1%.

What about the viability, T/C (second compound 10 µM, first compound 0.1 µM) of the same molecule?
The viability, T/C was 50.5%.

What about the viability, T/C (second compound 10 µM, first compound 0.316 µM) of the same molecule?
Its viability, T/C is 21.3%.

What about the viability, T/C (second compound 10 µM, first compound 1 µM) of the same molecule?
The viability, T/C was 1.25%.

For `CC1(C)CCC(Nc2ncc(C(F)(F)F)c(-c3c[nH]c4c(P(C)(C)=O)c(C#N)ccc34)n2)CN1` (centres undefined) + C#Cc1c(F)ccc2cc(O)cc(-c3ncc4c(N5CC6CCC(C5)N6)nc(OCC56CCCN5CC(F)C6)nc4c3F)c12, which IC50 (second compound 0.0316 µM) is on record?
Its IC50 is 4.05 nM.

What about the IC50 (second compound 0.1 µM) of the same molecule?
Its IC50 is 5.69 nM.

What about the IC50 (second compound 0.316 µM) of the same molecule?
The IC50 was 5.3 nM.

What about the IC50 (second compound 1 µM) of the same molecule?
Its IC50 is 5.82 nM.

And the IC50 (second compound 3.16 µM)?
The IC50 was 5.41 nM.

What about the IC50 (second compound 10 µM) of the same molecule?
Its IC50 is 2.06 nM.

What about the viability, T/C (second compound 0.0316 µM, first compound 0.000949 µM) of the same molecule?
The viability, T/C was 99.2%.

What about the viability, T/C (second compound 0.0316 µM, first compound 0.003 µM) of the same molecule?
The viability, T/C was 56.7%.

What about the viability, T/C (second compound 0.0316 µM, first compound 0.00949 µM) of the same molecule?
Its viability, T/C is 30.9%.

And the viability, T/C (second compound 0.0316 µM, first compound 0.03 µM)?
Its viability, T/C is 22%.

And the viability, T/C (second compound 0.0316 µM, first compound 0.0949 µM)?
Its viability, T/C is 19.6%.

And the viability, T/C (second compound 0.0316 µM, first compound 0.3 µM)?
The viability, T/C was 17.6%.

What about the viability, T/C (second compound 0.1 µM, first compound 0.000949 µM) of the same molecule?
Its viability, T/C is 92.2%.

What about the viability, T/C (second compound 0.1 µM, first compound 0.003 µM) of the same molecule?
Its viability, T/C is 66.7%.

What about the viability, T/C (second compound 0.1 µM, first compound 0.00949 µM) of the same molecule?
Its viability, T/C is 35.4%.

What about the viability, T/C (second compound 0.1 µM, first compound 0.03 µM) of the same molecule?
Its viability, T/C is 26.7%.

What about the viability, T/C (second compound 0.1 µM, first compound 0.0949 µM) of the same molecule?
Its viability, T/C is 18.4%.

And the viability, T/C (second compound 0.1 µM, first compound 0.3 µM)?
Its viability, T/C is 17.5%.

What about the viability, T/C (second compound 0.316 µM, first compound 0.000949 µM) of the same molecule?
Its viability, T/C is 91.3%.

What about the viability, T/C (second compound 0.316 µM, first compound 0.003 µM) of the same molecule?
Its viability, T/C is 63.7%.

What about the viability, T/C (second compound 0.316 µM, first compound 0.00949 µM) of the same molecule?
Its viability, T/C is 34.5%.

And the viability, T/C (second compound 0.316 µM, first compound 0.03 µM)?
Its viability, T/C is 28.1%.

And the viability, T/C (second compound 0.316 µM, first compound 0.0949 µM)?
Its viability, T/C is 20.4%.

And the viability, T/C (second compound 0.316 µM, first compound 0.3 µM)?
Its viability, T/C is 18.2%.

What about the viability, T/C (second compound 1 µM, first compound 0.000949 µM) of the same molecule?
The viability, T/C was 86.7%.

What about the viability, T/C (second compound 1 µM, first compound 0.003 µM) of the same molecule?
Its viability, T/C is 66.1%.

What about the viability, T/C (second compound 1 µM, first compound 0.00949 µM) of the same molecule?
Its viability, T/C is 37.7%.

What about the viability, T/C (second compound 1 µM, first compound 0.03 µM) of the same molecule?
Its viability, T/C is 24.4%.

And the viability, T/C (second compound 1 µM, first compound 0.0949 µM)?
The viability, T/C was 20.6%.

And the viability, T/C (second compound 1 µM, first compound 0.3 µM)?
Its viability, T/C is 17.1%.

And the viability, T/C (second compound 3.16 µM, first compound 0.000949 µM)?
Its viability, T/C is 87%.

What about the viability, T/C (second compound 3.16 µM, first compound 0.003 µM) of the same molecule?
Its viability, T/C is 64.4%.

What about the viability, T/C (second compound 3.16 µM, first compound 0.00949 µM) of the same molecule?
The viability, T/C was 34.7%.

And the viability, T/C (second compound 3.16 µM, first compound 0.03 µM)?
Its viability, T/C is 28.9%.

What about the viability, T/C (second compound 3.16 µM, first compound 0.0949 µM) of the same molecule?
The viability, T/C was 19.7%.

What about the viability, T/C (second compound 3.16 µM, first compound 0.3 µM) of the same molecule?
Its viability, T/C is 19.1%.

What about the viability, T/C (second compound 10 µM, first compound 0.000949 µM) of the same molecule?
Its viability, T/C is 68.7%.

What about the viability, T/C (second compound 10 µM, first compound 0.003 µM) of the same molecule?
The viability, T/C was 40.4%.

And the viability, T/C (second compound 10 µM, first compound 0.00949 µM)?
Its viability, T/C is 25.2%.

And the viability, T/C (second compound 10 µM, first compound 0.03 µM)?
Its viability, T/C is 24.3%.

And the viability, T/C (second compound 10 µM, first compound 0.0949 µM)?
Its viability, T/C is 15.3%.

And the viability, T/C (second compound 10 µM, first compound 0.3 µM)?
Its viability, T/C is 13.2%.
